Reference: US8895717B2, “Delivery of siRNA by neutral lipid compositions” (The Board of Regents of the University of Texas System, priority 2005, dated 2014)
d = 2'-deoxy (DNA); r = 2'-OH (RNA)

How the values were obtained:
SKOV3-TR cells = test: Cytotoxicity assay (MTT), SKOV3-TR; format: cell-based, human; settings: SKOV3-TR; siRNA 48 hours before docetaxel
Protocol: (§1) The medium was exchanged after 48 hours with increasing concentrations of docetaxel (obtained from Aventis Pharma, Bridgewater, N.J.) dissolved in ethanol (final concentration range, 0.1-10,000 nmol/L prepared in medium) or cisplatin (purchased from LKT Laboratories, Inc., St. Paul, Minn.) dissolved in water. After a 96-hour incubation, 50 μL of 0.15% 3-(4,5-dimethylthiazol-2-yl)-2,5-diphenyltetrazolium bromide was added to each well and incubated for 2 hours. The supernatant was removed, and cells were dissolved in 100 μL DMSO. The absorbance at 570 nm was recorded using a FALCON microplate reader (Becton Dickinson Labware, Bedford, Mass.), and cell survival expressed as a percent increase or decrease above control conditions, after subtracting blank A570 readings. The IC50 concentration was determined by finding the A570 reading midpoint between maximal and minimal readings and finding the chemotherapy concentration that intersects the growth curve at that A570 reading.

HeyA8-MDR cells = test: Cytotoxicity assay (MTT), HeyA8-MDR; format: cell-based, human; settings: HeyA8-MDR; siRNA 48 hours before docetaxel
Protocol: as §1

[1] = tested on: SKOV3-TR and HeyA8-MDR cells; test: TUNEL apoptosis assay, taxane-resistant cells; format: cell-based, human; settings: FAK siRNA with or without docetaxel
Protocol: Terminal deoxynucleotidyl transferase-mediated nick end labeling-positive cells were detected using Dead End Fluorometric terminal deoxynucleotidyl transferase-mediated nick end labeling system (APO-DIRECT, BD Biosciences/PharMingen, San Diego, Calif.) according to the manufacturer's instructions. Briefly, ovarian cancer cells in culture were treated with varying concentrations of docetaxel and harvested after 12, 24, 48, or 96 hours. Cells were fixed with 4% paraformaldehyde solution for 25 minutes on ice. Intracellular DNA fragments were then labeled by exposing cells to fluorescein-12-dUTP, treated with propidium iodide and RNaseA solution, and analyzed by flow cytometry (EPICS XL, Beckman Coulter, Miami, Fla.). The percentages of apoptotic cells were averaged over three consecutive experiments.

HeyA8 cells = test: Chronic restraint stress, HeyA8 orthotopic tumor growth; format: in vivo, nude mice; settings: siRNA in DOPC three times per week
Source text: Mice habituated to vivarium conditions for 1 week before the initiation of stress procedures. A restraint-stress procedure was used based on previous studies (Sheridan et al., 1991), substituting a novel Mouse Restraint System (FIG. 15A) for conical centrifuge tubes. In this system, up to 10 mice are placed in individual slots, and each slot can be adjusted to restrain the animal for a desired length of time. In the present study, restraint stress began between 8 a.m. and 10 a.m., and lasted for 2-6 hours for up to 21 days. […] Immunohistochemistry and H&E staining procedures were carried out on formalin-fixed paraffin-embedded tumors. […] Pumps were inserted on the nape of the neck 7 days prior to initiation of restraint stress for 2 hours daily. Mice were anesthetized with inhaled methoxyflurane (Medical Developments Australia Pty. Ltd, Melbourne, Australia), and implanted with Alzet pumps containing PBS or S-propranolol hydrochloride (Sigma Co., St. Louis, Mo.) diluted in PBS at a dose of 2 mg/kg/day, which allows for chronic continuous receptor blockade, for 28 days (Aarons and Molinoff, 1982; Exton et al., 2002).

Substance: FAK siRNA: sense r(CCACCUGGGCCAGUAUUAU)d(TT), antisense r(AUAAUACUGGCCCAGGUGG)d(TT); for in vivo delivery incorporated into DOPC (sense CCACCUGGGCCAGUAUUAUTT; antisense AUAAUACUGGCCCAGGUGGTT; sugars from the 5' end r19 d2, backbone not given here)
- fold increase in sensitivity to docetaxel (SKOV3-TR cells): 4.8 fold
- fold increase in sensitivity to docetaxel (HeyA8-MDR cells): 5.5 fold
- apoptosis [1]: neither agent alone induced much apoptosis

Substance: control siRNA: sense r(UUUUCCGAACGUGUCACGU)dTT, antisense r(ACGUGACACGUUCGGAGAA)dTT, no homology with human mRNA; in vivo in DOPC (sense UUUUCCGAACGUGUCACGUTT; antisense ACGUGACACGUUCGGAGAATT; sugars from the 5' end r19 d2, backbone not given here)
- effect on stress induced increase in tumor weight, nodules and metastasis (HeyA8 cells): failed to block stress-induced enhancement of tumor weight and nodules
